The record followed here is patent publication US9567643B2, “Compositions and methods for treating cancers” (Aptose Biosciences Inc., priority 2013, dated 2017).

A short description of data set [1]: Pharmacokinetics, serum level after i.v. bolus. The class given is in vivo. Conditions: CD-1 nude mice; i.v. bolus of LOR-253 HCl at 1, 5, 15 mg/kg; FIG. 10. The procedure:
To study the pharmacokinetic (PK) […], CD-1 nude mice were treated by i.v. bolus injections of LOR-253 HCl at 1, 5, and 15 mg/kg. The serum level of LOR-253 was measured.

Data set [2] can be described thus: Repeat-dose toxicity study, cardiovascular effects. The class given is in vivo. Particulars: dogs, highest dose tested (data not shown).
For data set [3], the target named is hERG tail current density (Homo sapiens, UniProt Q12809). Nature of the data set: hERG tail current inhibition. The class given is cell-based. Conditions: preclinical testing.
For a further data set, the system named is CYP450 enzymes. Nature of the data set: CYP450 inhibition. Type of data set: in vitro ADME. Particulars: preclinical testing.
Data set [4] is described as follows: GLP blood compatibility studies.
For data set [5], the system named is advanced or metastatic solid tumours. The data set is described as follows: Open-label phase 1 dose-escalating study. Type of data set: in vivo. The procedure: Phase I: This was an open-label, phase 1 study to determine the maximum tolerated dose (MTD) or appropriate target dose if MTD not reached to identify the recommended phase 2 dose of LOR-253 HCl in patients with advanced or metastatic solid tumours. In the first set of doses, LOR-253 HCl was given in ascending doses until the maximum administered dose or appropriate target dose is reached. In the other set of doses, LOR-253 HCl was given in ascending doses starting from 20 mg/m2 until the maximum administered dose or appropriate target dose is reached. Patient as treated on LOR-253 HCl for 2 cycles for the evaluation. • Other Name: No other names are used. • Study Type: Interventional • Study Design: • Endpoint Classification: Safety Study • Intervention Model: Single Group Assignment • Masking: Open Label • Primary Purpose: Treatment • Official Title: Open-Label, Phase 1 Study of LOR-253 HCl in Patients With Advanced or Metastatic Solid Tumours Primary Outcome Measures: • To determine the maximum tolerated dose (MTD) or appropriate target dose if MTD not reached to identify the recommended phase 2 dose of LOR-253 HCl in patients with advanced or metastatic solid tumours. [Time Frame: 8 weeks] Secondary Outcome Measures: • To characterize the safety profile of LOR-253 HCl when administered to patients with advanced or metastatic solid tumours. [Time Frame: 8 weeks] Inclusion Criteria: • 1. Male or female 18 years of age or older. • 2. Histologically confirmed diagnosis of solid tumor for which no effective therapy is available or that is unresponsive to conventional therapy. • 3. Meet laboratory parameter requirements at study entry. Exclusion Criteria: • 1. Chemotherapy, radiotherapy, biologic therapy, immunotherapy or any other investigational drugs within 21 days of beginning study treatment with LOR-253 HCl. • 2. A hematologic malignancy. • 3. A history of brain or other central nervous system metastases. • 4. Have a presence of a significant infection. • 5. Clinically significant autoimmune disease. • 6. Uncontrolled intercurrent illness. • 7. With iron or copper overload syndromes. • 8. Pregnancy or breast feeding.

Another data set has as its system Kasumi-1. Nature of the data set: Kasumi-1 AML xenograft model. Type of data set: in vivo, athymic nude mice. Conditions: Kasumi-1 xenograft; 30 mg/kg (15 mg/kg twice per day) i.v., two consecutive days per week, four weeks; p=0.028 by Student's t-test; FIG. 15. The procedure:
(§1) The anti-tumor activity of LOR-253 HCl was evaluated in another in vivo animal model of human AML. The human AML cell line Kasumi-1 was implanted subcutaneously into athymic nude mice. Some tumor-bearing mice were treated with LOR-253 HCl at 30 mg/kg (15 mg/kg twice per day) for two consecutive days per week for four weeks (the “LOR-253 treatment group”). LOR-253 was administered by intravenous (i.v.) bolus injection as the hydrochloric salt form (LOR-253-HCl) formulated in 20% Polyethylene Glycol 400, 10% Propylene Glycol, and 10% Solutol HS in 60% water.
(§2) The major endpoint was to observe for tumor growth inhibition after treatment with LOR-253 HCl and compare the anti-tumor effects of different dosing schedules. Tumor sizes were measured three times per week from day 10 after the tumor cell inoculation. Tumors were measured in three dimensions using calipers and the volume was expressed in millimeters cubed using the formula: V=0.5a×b×c, where a, b, and c are the length, width, and height of the tumor, respectively. Mean tumor volumes+/−standard error (SE) were calculated from each measurement and then plotted in a standard graph to compare the anti-tumor efficacy of drug treatment to that of control (FIG. 15). Toxicity was assessed by clinical observations and by measurement of mouse body weight in grams twice per week over the course of the study. […]

Data set [6] is described as follows: Toxicity assessment in Kasumi-1 tumor-bearing mice. Conditions: 15 mg/kg twice per day i.v., two days per week, four weeks. The procedure: as §1, §2
The test system of a further data set is HL-60. The data set is described as follows: HL-60 AML xenograft model. The class given is in vivo, athymic nude mice. Conditions: HL-60 xenograft, 3 cycles, FIG. 17. The procedure: The human AML cell line HL-60 was implanted subcutaneously into athymic nude mice. Tumor-bearing mice were treated with LOR-253 HCl alone or in combination with azacitidine, with azacitidine alone, or with a negative control vehicle. The detailed treatment conditions are as follows. • Group 1: Negative control group. LOR-253 HCl control vehicle, 2×/day, 3 cycles of 2 consecutive days, 5 days between cycles, i.v., plus 1% D-mannitol every four days by s.c. injection • Group 2: Azacitidine (in 1% D-mannitol) at 10 mg/kg 1× on days 1, 4, 8, 11, 15 and 18 by subcutaneous (s.c.) injection • Group 3: LOR-253 HCl at 15 mg/kg bid for 3 cycles, each cycle is 2 consecutive days of dosing per week with 5 days of non-dosing, i.v., n=9 (2T-5B) • Group 4: LOR-253 HCl at 15 mg/kg 2×/day (bid) for 3 cycles, each cycle is 1 day of dosing per week with 6 days of non-dosing, i.v., n=9 (1T-6B) • Group 5: Combination of LOR-253 (2T-5B) and azacitidine. LOR-253 HCl at 15 mg/kg bid for 3 cycles, each cycle is 2 consecutive days of dosing per week with 5 days of non-dosing, i.v., n=9 (2T-5B) plus azacitidine at 10 mg/kg 1× every four days by s.c. injection • Group 6: Combination of LOR-253 (1T-6B) and azacitidine. […]
Tumor sizes were measured three times per week.

The subject of the next data set is KG-1. The data set is described as follows: KG-1 AML xenograft model. The class given is in vivo, mice. Conditions: KG-1 xenograft; 15 mg/kg-iv, bid, 2T/wk; FIG. 20. The procedure:
Xenograft model mice for AML cell line KG-1 was generated with the same method as in Examples 14 and 15, and were treated with LOR-253 HCl or control according to the following regime.
LOR-253—15 mg/kg-iv, bid, 2T/wk—Day 1

For a further data set, the system named is THP-1. Nature of the data set: THP-1 AML xenograft model. The class given is in vivo, mice. Conditions: THP-1 xenograft; Group-2: i.v. Days 1, 2, 8, 9, 15, 16 and IP Days 22-25, 29, 30; FIG. 21. The procedure:
The anti-tumor activity of LOR-253 HCl, as a single agent and in combination with azacitidine, was evaluated in yet another in vivo animal model of human AML. Xenograft model mice for AML cell line THP-1 was generated with the same method as in Examples 14 and 15, and were treated with LOR-253 HCl alone or in combination with azacitidine, with azacitidine alone, or with a negative control vehicle, and tumor sizes were measured as described in Examples 14 and 15. The detailed treatment conditions are shown as follows, and the results are shown in FIG. 21. • Group 1 Control: received i.v. treatments with LOR-253 control vehicle (CV) on Days 1, 2, 8, 9, 15 &16; received subcutaneous (SC) treatments with Azacitidine control vehicle on Days 1, 4, 8, 11, 15, 18, 22, 25, 29 &32; and received intraperitoneal (IP) treatments with LOR-253-CV on Days 22, 23, 24, 25, 29&30. • Group-2—LOR-253: received i.v. treatments on Days 1, 2, 8, 9, 15 &16; received IP treatments on Days 22, 23, 24, 25, 29&30 • Group-3—Azacitidine: received SC treatments on Days 1, 4, 8, 11, 15, 18, 22, 25, 29 &32. • Group-4—Combination: received i.v. treatments with LOR-253 on Days 1, 2, 8, 9, 15 &16; received IP treatments with LOR-253 on Days 22, 23, 24 &25; and received SC-treatment with Azacitidine on Days 1, 4, 8, 11, 15, 18, 22 &25

[7] abbreviates: patients with advanced solid tumors, phase I.

Where a name gives a salt, the structure may show the parent alone.

Sequence of hERG tail current density (Q12809 whole entry): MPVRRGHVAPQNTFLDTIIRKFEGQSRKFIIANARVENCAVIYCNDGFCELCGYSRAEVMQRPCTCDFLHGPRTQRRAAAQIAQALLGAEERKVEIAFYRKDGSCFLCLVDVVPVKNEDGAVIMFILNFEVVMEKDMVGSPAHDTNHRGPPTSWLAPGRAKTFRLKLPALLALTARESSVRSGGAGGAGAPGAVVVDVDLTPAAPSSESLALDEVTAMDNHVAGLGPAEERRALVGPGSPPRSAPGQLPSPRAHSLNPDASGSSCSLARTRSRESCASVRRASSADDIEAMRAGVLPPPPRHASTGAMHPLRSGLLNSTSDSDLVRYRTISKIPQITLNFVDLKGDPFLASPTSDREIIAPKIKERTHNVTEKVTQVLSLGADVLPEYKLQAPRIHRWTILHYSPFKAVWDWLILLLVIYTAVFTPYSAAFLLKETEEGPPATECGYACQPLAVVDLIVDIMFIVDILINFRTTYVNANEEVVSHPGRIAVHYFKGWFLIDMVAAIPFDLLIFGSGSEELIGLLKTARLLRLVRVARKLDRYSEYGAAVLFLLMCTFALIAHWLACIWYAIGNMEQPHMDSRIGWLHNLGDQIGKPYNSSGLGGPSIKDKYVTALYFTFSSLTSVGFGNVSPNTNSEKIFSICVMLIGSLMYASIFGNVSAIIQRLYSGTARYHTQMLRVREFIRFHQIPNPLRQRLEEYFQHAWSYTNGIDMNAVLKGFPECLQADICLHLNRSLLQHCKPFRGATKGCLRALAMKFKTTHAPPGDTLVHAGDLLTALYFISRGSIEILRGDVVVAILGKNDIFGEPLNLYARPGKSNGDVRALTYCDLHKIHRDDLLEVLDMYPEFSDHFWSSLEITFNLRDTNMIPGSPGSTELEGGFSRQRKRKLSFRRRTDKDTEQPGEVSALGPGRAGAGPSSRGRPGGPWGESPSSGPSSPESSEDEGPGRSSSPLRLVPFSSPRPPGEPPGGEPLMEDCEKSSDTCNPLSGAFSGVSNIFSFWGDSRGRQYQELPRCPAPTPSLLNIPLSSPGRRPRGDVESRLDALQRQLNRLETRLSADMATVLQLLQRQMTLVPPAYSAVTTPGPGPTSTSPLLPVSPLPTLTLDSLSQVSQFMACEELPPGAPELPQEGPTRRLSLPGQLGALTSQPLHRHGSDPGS

Consider `Cc1[nH]c2ccc(F)cc2c1-c1nc2c3cccnc3c3ncccc3c2[nH]1` [LOR-253], for which the “serum level of LOR-253” value in [1] was “dose related increase”. For the same compound, the cardiovascular effects result in data set [2] is “no treatment-related cardiovascular effects”. Moreover, the “inhibition of hERG tail current density” value in [3] is “no significant inhibition”. For the same compound, the “inhibition of CYP450 enzymes” value with CYP450 enzymes is reported as “no significant inhibition”. For the same compound, in data set [4], the “blood compatibility of IV formulation” value is listed as “confirmed the suitability of IV formulation”.
Regarding `Cc1[nH]c2ccc(F)cc2c1-c1nc2c3cccnc3c3ncccc3c2[nH]1` [LOR-253 HCl], the safety profile entry in data set [5] (N=27 patients across 7 dose levels, phase I) is “Excellent Safety Profile”. In data set [5] (patient with NSCLC (poorly differentiated adenocarcinoma) and extensive metastases refractory to prior therapies, FIG. 12), the “tumor response in single patient” value is “Tumor shrinkage”. The RECIST partial response entry in data set [5] (setting [7]) is reported as “No RECIST PR”. For the same compound, the “most common AE and SAE” value in [5] (setting [7]) was “Fatigue and 1 case of reversible hypophosphatemia”. For the same compound, the “Stable Disease, share of evaluable patients” value in data set [5] (patients with advanced solid tumors, phase I, 7 dose levels) worked out at 41%. Further, the “tumor growth inhibition vs vehicle control” value in the data set with Kasumi-1 is on record as “significant tumor growth inhibition”. In data set [6], the “overt signs of toxicity (clinical observations)” value is listed as “did not show other overt signs of toxicity”. For the same compound, the body weight entry in data set [6] (FIG. 16) is on record as “did not show body weight loss”. In addition, the “inhibition of tumor growth, single agent” value is given as “approximately the same extent as or slightly more than azacitidine alone” with HL-60 (Group 3: 15 mg/kg twice per day i.v., two consecutive days per week (2T-5B)); “approximately the same extent as or slightly more than azacitidine alone” in the data set on HL-60 (Group 4: 15 mg/kg twice per day i.v., one day per week (1T-6B)); “about the same extent as or slightly more than azacitidine alone” in the data set with THP-1. Moreover, the “tumor growth inhibition, single agent” value in the data set on KG-1 is reported as “significant tumor growth inhibition”.
